We go through twelve compounds from patent US20240342292A1, “Compounds for the Degradation of EGFR Kinase” (BeiGene Switzerland GmbH, priority 2021, published 2024).

Structures are written as SMILES.

In assay [1] the test system is Del19/T790M/C797S EGFR. The assay is described as follows: EGFR degradation HTRF assay in H1975-clone #28 (DTC) cells. The note with it: H1975 # 28 DTC (Del19/T790M/C797S), 16h treatment; for DC50: HTRF; for Dmax (%): maximum percentage of degradation. Format: cell-based. In short, it runs like this:
(§1)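 DC50 from a four-parameter fit of HTRF signal. H1975 mutant-EGFR clones with endogenous EGFR knocked out; 16 h treatment, 10 uM top, 5-fold × 8.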

For assay [2], the target named is T1, L858R/T790M/C797S EGFR (Homo sapiens, UniProt P00533, C797S/L858R/T790M).
T1 construct: expressed in transfected cells; host or cells: H1975 clone #25 (lentiviral over-expression, endogenous EGFR knocked out by sgRNA)
The assay is described as follows: EGFR degradation HTRF assay in H1975-clone #25 (LTC) cells. Particulars: 16h treatment; for DC50: H1975 # 25-LTC (L858R/T790M/C797S), HTRF; for Dmax: NCI-H1975, H1975 # 25-LTC (L858R/T790M/C797S), maximum percentage of degradation. It counts as cell-based. In short, it runs like this: as §1
(In general: Time-resolved FRET reads energy transfer from a long-lived donor to a nearby acceptor.)

T1 sequence (P00533 25-1210 T790M/C797S/L858R): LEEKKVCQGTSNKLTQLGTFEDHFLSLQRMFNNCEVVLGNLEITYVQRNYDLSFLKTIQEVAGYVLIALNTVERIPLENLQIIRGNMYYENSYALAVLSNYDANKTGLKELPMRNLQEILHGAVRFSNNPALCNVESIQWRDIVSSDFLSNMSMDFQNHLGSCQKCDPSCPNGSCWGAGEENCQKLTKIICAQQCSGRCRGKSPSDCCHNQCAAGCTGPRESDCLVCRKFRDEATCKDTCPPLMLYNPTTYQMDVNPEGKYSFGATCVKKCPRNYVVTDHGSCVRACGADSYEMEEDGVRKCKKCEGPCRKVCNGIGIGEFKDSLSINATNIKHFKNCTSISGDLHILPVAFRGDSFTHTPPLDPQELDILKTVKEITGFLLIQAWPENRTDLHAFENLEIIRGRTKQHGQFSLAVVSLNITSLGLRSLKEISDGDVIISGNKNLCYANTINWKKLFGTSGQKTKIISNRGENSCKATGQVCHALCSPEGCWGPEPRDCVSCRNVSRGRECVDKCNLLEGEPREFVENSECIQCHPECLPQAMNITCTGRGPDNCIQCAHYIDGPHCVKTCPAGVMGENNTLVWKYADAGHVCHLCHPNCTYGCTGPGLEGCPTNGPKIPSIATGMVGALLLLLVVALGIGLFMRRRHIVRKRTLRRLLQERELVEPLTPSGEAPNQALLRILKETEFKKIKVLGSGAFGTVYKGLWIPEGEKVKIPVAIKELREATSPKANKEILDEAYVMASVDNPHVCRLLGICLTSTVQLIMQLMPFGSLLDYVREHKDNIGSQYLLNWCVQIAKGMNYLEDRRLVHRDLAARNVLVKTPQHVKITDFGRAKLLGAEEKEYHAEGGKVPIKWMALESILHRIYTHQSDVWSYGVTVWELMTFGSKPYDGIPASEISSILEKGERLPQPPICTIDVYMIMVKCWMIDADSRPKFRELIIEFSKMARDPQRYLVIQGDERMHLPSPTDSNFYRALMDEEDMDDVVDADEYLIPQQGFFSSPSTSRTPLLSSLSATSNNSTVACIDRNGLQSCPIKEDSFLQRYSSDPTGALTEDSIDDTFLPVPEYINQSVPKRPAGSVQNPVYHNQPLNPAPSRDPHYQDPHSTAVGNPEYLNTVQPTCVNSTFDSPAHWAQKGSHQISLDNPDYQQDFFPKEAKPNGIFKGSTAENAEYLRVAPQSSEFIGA

For the compound `Cc1cc2cc(n1)-c1cnn(C)c1OCCC[C@@H](C)CN1/C(=N/C2=O)Nc2ccc(N3CCC(N4CC(Nc5cc(F)c([C@H]6CCC(=O)NC6=O)c(F)c5)C4)CC3)cc21` [Example 392, (R)-3-(2,6-difluoro-4-((1-(1-((R,E)-1^1,2^6,7-trimethyl-3-oxo-5^2,5^3-dihydro-1^1H,5^1H-11-oxa-4-aza-5(2,1)-benzo[d]imidazola-2(2,4)-pyridina-1(4,5)-pyrazolacycloundecaphane-5^6-yl)piperidin-4-yl)azetidin-3-yl)amino)phenyl)piperidine-2,6-dione], in assay [1], the 50% degradation concentration (DC50) (as a rule, the concentration at which degradation of the target reaches its halfway point) worked out at 0.821 nM and the “Dmax (%)” value turned out to be 75.48%. Further, in assay [2], the DC50 was 1.29 nM and the Dmax (commonly the greatest extent of degradation seen) turned out to be 86.7%.

As for `Cc1cc2cc(n1)-c1cnn(C)c1OCCC[C@@H](C)CN1/C(=N/C2=O)Nc2ccc(C(=O)N[C@@H]3CCN(CCc4cc(F)c([C@H]5CCC(=O)NC5=O)c(F)c4)[C@H](C)C3)cc21` [Example 269, (R,E)-N—((2R,4R)-1-(4-((R)-2,6-dioxopiperidin-3-yl)-3,5-difluorophenethyl)-2-methylpiperidin-4-yl)-1^1,2^6,7-trimethyl-3-oxo-5^2,5^3-dihydro-1^1H,5^1H-11-oxa-4-aza-5(2,1)-benzo[d]imidazola-2(2,4)-pyridina-1(4,5)-pyrazolacycloundecaphane-5^6-carboxamide], in assay [1], it took 0.638 nM to reach half-maximal degradation (DC50) and the “Dmax (%)” value is recorded as 82.6%. Moreover, in assay [2], the 50% degradation concentration (DC50) came to 0.316 nM and the Dmax worked out at 92.7%.

In the case of `Cc1cc2cc(n1)-c1cnn(C)c1OCCC[C@@H](C)CN1/C(=N/C2=O)Nc2ccc(N3CCC(N4CCC(Oc5cc(F)c([C@H]6CCC(=O)NC6=O)c(F)c5)CC4)CC3)cc21` [Example 381, (R)-3-(2,6-difluoro-4-((1′-((R,E)-1^1,2^6,7-trimethyl-3-oxo-5^2,5^3-dihydro-1^1H,5^1H-11-oxa-4-aza-5(2,1)-benzo[d]imidazola-2(2,4)-pyridina-1(4,5)-pyrazolacycloundecaphane-5^6-yl)-[1,4′-bipiperidin]-4-yl)oxy)phenyl)piperidine-2,6-dione], in assay [1], the DC50 came out at 1.06 nM and the “Dmax (%)” value is 60.14%. Further, in assay [2], the DC50 turned out to be 0.9 nM and the Dmax is 83.6%.

As to `Cc1cc2cc(n1)-c1cnn(C)c1OCCC[C@@H](C)CN1/C(=N/C2=O)Nc2ccc(CN3CCN(C(=O)[C@@H]4CCN(c5ccc(F)c6c5n(C)c(=O)n6C5CCC(=O)NC5=O)C4)CC3)cc21` (stereo partly drawn) [Example 211, 3-(7-fluoro-3-methyl-2-oxo-4-((R)-3-(4-(((R,E)-1^1,2^6,7-trimethyl-3-oxo-5^2,5^3-dihydro-1^1H,5^1H-11-oxa-4-aza-5(2,1)-benzo[d]imidazola-2(2,4)-pyridina-1(4,5)-pyrazolacycloundecaphane-5^6-yl)methyl)piperazine-1-carbonyl)pyrrolidin-1-yl)-2,3-dihydro-1H-benzo[d]imidazol-1-yl)piperidine-2,6-dione], in assay [1], the 50% degradation concentration (DC50) was determined as 0.901 nM and the “Dmax (%)” value was 75.24%. In assay [2], the DC50 stood at 0.852 nM and the Dmax was 85.1%.

As to `Cc1cc2cc(n1)-c1cnn(C)c1OCCC[C@@H](C)CN1/C(=N/C2=O)Nc2ccc(C(=O)N(C)[C@H]3CCN(CCNc4cc(F)c([C@H]5CCC(=O)NC5=O)c(F)c4)C[C@H]3F)cc21` [Example 351, (R,E)-N—((3R,4S)-1-(2-((4-((R)-2,6-dioxopiperidin-3-yl)-3,5-difluorophenyl)amino)ethyl)-3-fluoropiperidin-4-yl)-N,1^1,2^6,7-tetramethyl-3-oxo-5^2,5^3-dihydro-1^1H,5^1H-11-oxa-4-aza-5(2,1)-benzo[d]imidazola-2(2,4)-pyridina-1(4,5)-pyrazolacycloundecaphane-5^6-carboxamide], in assay [1], half-maximal degradation (DC50) was put at 0.561 nM and the “Dmax (%)” value came out at 83.91%. In assay [2], this compound had a DC50 of 0.614 nM and a Dmax of 91.7%.

Take `Cc1cc2cc(n1)-c1cnn(C)c1OCCC[C@H](C)CN1/C(=N/C2=O)Nc2c(C)cc(CN3CCN(C(=O)C4CN(c5cc(F)c([C@H]6CCC(=O)NC6=O)c(F)c5)C4)CC3)cc21` [Example 154, (R)-3-(2,6-difluoro-4-(3-(4-(((S,E)-11,26,54,7-tetramethyl-3-oxo-5^2,5^1-dihydro-1^1H,5^1H-11-oxa-4-aza-5(2,1)-benzo[d]imidazola-2(2,4)-pyridina-1(4,5)-pyrazolacycloundecaphane-5^6-yl)methyl)piperazine-1-carbonyl)azetidin-1-yl)phenyl)piperidine-2,6-dione]: in assay [1], the half-maximal degradation concentration (DC50) worked out at 0.994 nM and the “Dmax (%)” value amounted to 78.94%. In assay [2], this compound had a DC50 of 0.998 nM and a Dmax of 79.4%.

For the compound `Cc1cc2cc(n1)-c1cnn(C)c1OCCC[C@@H](C)CN1/C(=N/C2=O)Nc2ccc(N3CC4(CCN(CC5CN(c6cc(F)c([C@H]7CCC(=O)NC7=O)c(F)c6)C5)CC4)CC3=O)cc21` [Example 406, (R)-3-(2,6-difluoro-4-(3-((3-oxo-2-((R,E)-1^1,2^6,7-trimethyl-3-oxo-5^2,5^3-dihydro-1^1H,5^1H-11-oxa-4-aza-5(2,1)-benzo[d]imidazola-2(2,4)-pyridina-1(4,5)-pyrazolacycloundecaphane-5^6-yl)-2,8-diazaspiro[4.5]decan-8-yl)methyl)azetidin-1-yl)phenyl)piperidine-2,6-dione], in assay [1], it took 1.09 nM to reach half-maximal degradation (DC50) and the “Dmax (%)” value is on record as 85.15%. In assay [2], this compound yielded a DC50 of 1.65 nM and a Dmax of 89.6%.

Regarding `Cc1cc2cc(n1)-c1cnn(C)c1OCCC[C@@H](C)CN1/C(=N/C2=O)Nc2ccc(CN3C[C@@H]4C[C@H]3CN4C(=O)[C@H]3CN(c4cc(F)c([C@H]5CCC(=O)NC5=O)c(F)c4)CC3(C)C)cc21` [Example 185, (R)-3-(4-((R)-3,3-dimethyl-4-((1S,4S)-5-(((R,E)-1^1,2^6,7-trimethyl-3-oxo-5^2,5^3-dihydro-1^1H,5^1H-11-oxa-4-aza-5(2,1)-benzo[d]imidazola-2(2,4)-pyridina-1(4,5)-pyrazolacycloundecaphane-5^6-yl)methyl)-2,5-diazabicyclo[2.2.1]heptane-2-carbonyl)pyrrolidin-1-yl)-2,6-difluorophenyl)piperidine-2,6-dione], in assay [1], the 50% degradation concentration (DC50) was determined as 0.752 nM and the “Dmax (%)” value worked out at 60.18%. For the same compound, in assay [2], half-maximal degradation (DC50) was put at 1.04 nM and the Dmax came to 87.1%.

Regarding `Cc1cc2cc(n1)-c1cnn(C)c1OCCC[C@@H](C)CN1/C(=N/C2=O)Nc2ccc(N3CCN(C4CCN(c5cc(F)c([C@H]6CCC(=O)NC6=O)c(F)c5)CC4)CC34CC4)cc21` [Example 418, (R)-3-(2,6-difluoro-4-(4-(4-((R,E)-1^1,2^6,7-trimethyl-3-oxo-5^2,5^3-dihydro-1^1H,5^1H-11-oxa-4-aza-5(2,1)-benzo[d]imidazola-2(2,4)-pyridina-1(4,5)-pyrazolacycloundecaphane-5^6-yl)-4,7-diazaspiro[2.5]octan-7-yl)piperidin-1-yl)phenyl)piperidine-2,6-dione], in assay [1], the DC50 was 3.2 nM and the “Dmax (%)” value is 91.56%. In assay [2], this compound gave a DC50 of 0.517 nM and a Dmax of 60.7%.

With `Cc1cc2cc(n1)-c1cnn(C)c1OCCC[C@@H](C)CN1/C(=N/C2=O)Nc2ccc(N3CCN(C(=O)[C@@H]4CN(c5cc(F)c([C@H]6CCC(=O)NC6=O)c(F)c5)CC4(C)C)CC3)cc21` [Example 326, (R)-3-(4-((S)-3,3-dimethyl-4-(4-((R,E)-1^1,2^6,7-trimethyl-3-oxo-5^2,5′-dihydro-1^1H,5^1H-11-oxa-4-aza-5(2,1)-benzo[d]imidazola-2(2,4)-pyridina-1(4,5)-pyrazolacycloundecaphane-5^6-yl)piperazine-1-carbonyl)pyrrolidin-1-yl)-2,6-difluorophenyl)piperidine-2,6-dione], in assay [1], the DC50 amounted to 1.71 nM and the “Dmax (%)” value is on record as 81.61%. For the same compound, in assay [2], it took 1.88 nM to reach half-maximal degradation (DC50) and the maximal degradation (Dmax) stood at 88.9%.

For the compound `Cc1cc2cc(n1)-c1cnn(C)c1OCCC[C@@H](C)CN1/C(=N/C2=O)Nc2ccc(C(=O)N[C@@H]3CCN(CCc4cc(F)c([C@H]5CCC(=O)NC5=O)c(F)c4)CC3(C)C)cc21` [Example 263, (R,E)-N—((R)-1-(4-((R)-2,6-dioxopiperidin-3-yl)-3,5-difluorophenethyl)-3,3-dimethylpiperidin-4-yl)-1^1,2^6,7-trimethyl-3-oxo-5^2,5^3-dihydro-1H,5^1H-11-oxa-4-aza-5(2,1)-benzo[d]imidazola-2(2,4)-pyridina-1(4,5)-pyrazolacycloundecaphane-5^6-carboxamide], in assay [1], half-maximal degradation (DC50) was put at 0.597 nM and the “Dmax (%)” value stood at 78.67%. In assay [2], this compound gave a DC50 of 0.351 nM and a Dmax of 93.6%.

Take `Cc1cc2cc(n1)-c1cnn(C)c1OCCC[C@@H](C)CN1/C(=N/C2=O)Nc2ccc(N3CCN(CCc4cc(F)c([C@H]5CCC(=O)NC5=O)c(F)c4)CC3)cc21` [Example 320, (R)-3-(2,6-difluoro-4-(2-(4-((R,E)-1^1,26,7-trimethyl-3-oxo-5^2,5^3-dihydro-1^1H,5^1H-11-oxa-4-aza-5(2,1)-benzo[d]imidazola-2(2,4)-pyridina-1(4,5)-pyrazolacycloundecaphane-5^6-yl)piperazin-1-yl)ethyl)phenyl)piperidine-2,6-dione]: in assay [1], half-maximal degradation (DC50) was put at 0.674 nM and the “Dmax (%)” value is 71.04%. In addition, in assay [2], the DC50 came to 0.591 nM and the Dmax worked out at 86.2%.
